From US20180344748A1, “METHODS AND COMPOSITIONS FOR PREVENTING OR TREATING CHRONIC INFLAMMATORY DISEASES” (ENTERIN LABORATORIES, INC., priority 2017, published 2018)

Tests used:
Format in all cases: cell-based
[1] = test system: human monocyte derived dendritic cells; experiment: Dendritic cell maturation, flow cytometry of surface markers; conditions: 10 μM, 48 h, FIG. 4
Procedure: FIG. 4: Human monocyte derived dendritic cells were incubated at 5×10^5/ml in the presence of recombinant monomeric or aggregated alpha-synuclein, and the NAc 1-21 amino terminal peptide of alpha-synuclein (each at a final concentration of 10 μM) for 48 h before they were immunostained and analyzed by flow cytometry for the expression of the indicated surface molecules. E. coli lipopolysaccharide (LPS) (100 ng/ml) was included as a positive control. Shown are the results of one experiment representative of three. The ordinate of […].
Chemotaxis assays followed published procedures. De et al. (2000). Neutrophils and monocytes were isolated from the blood of healthy human donors as described. Id. Recombinant human α-synuclein (lot #20162050, endotoxin contamination 18.6 EU/mg) was from Proteos, Inc. via the Michael J. Fox Foundation. The α-synuclein aggregates were made following a protocol provided by Proteos. […]
Human monocyte derived dendritic cells were exposed for 2 days to α-synuclein monomer, aggregate, and N—Ac 1-21 peptide and then analyzed by flow cytometry to measure the extent of phenotypic maturation, using CD80, CD83, CD86, HLA-ABC, and HLA-DR as determinants (FIG. 4).

human neutrophils = experiment: Chemotaxis assay, human neutrophils; conditions: bell shaped concentration curve; FIG. 3A
Procedure: (§1) FIGS. 3A-F: α-Synuclein is a chemoattractant dependent on CD11b. Assays were conducted as described in the examples below. The average of 3 independent assays for each sample is presented. The concentration of the α-synuclein aggregate is in terms of the monomer. A positive control, FMLP, is noted in black. NAc 1-21, the N-acetylated peptide corresponding to the first 21 amino acids of α-synuclein; 1-25, a peptide corresponding to the first 25 amino acids. FIG. 3A=Human Neutrophils; FIG. 3B=Human monocytes; FIGS. 3C and 3D=Representative photos of the cellular response. FIG. 3E=Neutrophils from CD11b −/− or wild type mice (0.5×10^6/ml), assayed as described in the examples. FIG. 3F=Human neutrophils incubated in the presence of anti-CD11b antibody or control (50 μg/ml each). CM, control media (negative control)
(§2) Chemotaxis, or the movement of cells in response to a chemical stimulus, is routinely measured in a Boyden chamber. In this apparatus, immune cells are attached to one side of a membrane containing pores through which the immune cells can traffic. On the other side of the membrane a chemoattractant is introduced. Over the course of several hours the immune cells migrate from the side of the membrane on which they were initially placed to the side exposed to the chemoattractant. […] After 24 hours the number of immune cells that have migrated to towards the chemoattractant are counted. […]

human monocytes = experiment: Chemotaxis assay, human monocytes; conditions: bell shaped concentration curve; FIG. 3B
Procedure: as §1, §2

Substance | dendritic cell maturation (CD80, CD83, CD86, HLA-ABC, HLA-DR) [1] | chemotactic activity towards human neutrophils (human neutrophils) | chemotactic activity towards human monocytes (human monocytes)
N-acetylated peptide: the N-acetylated peptide corresponding to the first 21 amino acids of α-synuclein | did not | retained the chemotactic activity of the full-length protein | retained the chemotactic activity of the full-length protein
peptide, extending to residue 25: a peptide corresponding to the first 25 amino acids of α-synuclein, lacking the N-acetyl moiety | – | inactive | inactive
